In patent publication US12331068B2, “Compositions and methods for inhibiting CD73” (Peloton Therapeutics, Inc., priority 2018, dated 2025):
Like-named read-outs stand apart in the source and are kept apart here.

Columns and labels:
Human CD73 = biological target: T1, Human CD73 (Homo sapiens, UniProt P21589); assay: CD73 Enzyme Assay (EnzChek PNP/MESG kinetic readout of AMP hydrolysis); format: biochemical; conditions: 0.25 nM hCD73, 25 μM AMP; read-out: CD73 Enzyme Assay IC50
T1 construct: purchased R&D Systems; host or cells: CHO cells
T1 sequence (P21589 27-549): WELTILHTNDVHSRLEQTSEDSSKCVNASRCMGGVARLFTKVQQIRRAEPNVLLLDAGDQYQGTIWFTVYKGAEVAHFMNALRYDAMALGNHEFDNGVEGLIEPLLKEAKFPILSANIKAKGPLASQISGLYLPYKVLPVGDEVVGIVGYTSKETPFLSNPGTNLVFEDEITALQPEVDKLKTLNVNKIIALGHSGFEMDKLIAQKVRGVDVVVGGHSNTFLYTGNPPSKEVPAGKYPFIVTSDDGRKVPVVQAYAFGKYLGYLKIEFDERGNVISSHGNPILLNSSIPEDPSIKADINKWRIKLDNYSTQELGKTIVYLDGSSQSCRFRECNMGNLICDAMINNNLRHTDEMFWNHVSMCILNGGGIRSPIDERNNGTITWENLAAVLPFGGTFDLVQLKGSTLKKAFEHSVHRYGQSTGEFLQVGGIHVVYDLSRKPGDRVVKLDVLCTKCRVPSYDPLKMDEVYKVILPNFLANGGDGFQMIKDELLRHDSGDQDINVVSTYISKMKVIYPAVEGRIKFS
Procedure, shortened: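 Compounds tested as 15-point, 3-fold dilution series (300 μM to 0.0002 μM) in DMSO. Kinetic absorbance at 360 nm read every minute for 10–20 min, initial velocity taken from the linear portion.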

[1] = biological target: T2, CD73 on U138 human neuroglioma cells (Homo sapiens, UniProt P21589); assay: CD73 Cell-Based Assay (inorganic phosphate from AMP, malachite green); conditions: AMP substrate, 2 hours at 37° C.
T2 construct: U138 cells were obtained from ATCC and cultured in DMEM with 10% FBS; host or cells: U138 human neuroglioma cells
T2 sequence (P21589 27-549): T1 sequence (P21589 27-549)
Procedure, shortened: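 U138 cells, seeded the day before at 2500 per well, were washed and given AMP substrate (200 μM in the added mixture, before dilution into the buffer) together with compound. After 2 h at 37 °C in 5% CO2, inorganic phosphate in the supernatant was measured with malachite green.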

[2] = read-out: CD73 Cell-Based assay IC50

Structure (SMILES)	IC50 (Human CD73)	IC50 [1, 2]	IC50 ([1]; read-out: IC50)
C[C@H](Nc1c(C#N)c(Cl)nc2c1ncn2[C@@H]1O[C@H](COP(=O)(O)CP(=O)(O)O)[C@@H](O)[C@H]1O)c1ccccc1F [Compound 242]	< 10 nM	< 10 nM	
C[C@H](Nc1c(C#N)c(Cl)nc2c1cnn2[C@@H]1O[C@H](COP(=O)(O)CP(=O)(O)O)[C@@H](O)[C@H]1O)c1ccc(C#N)cc1 [Compound 243]	< 10 nM	< 10 nM	
N#Cc1c(Cl)nc2c(cnn2[C@@H]2O[C@H](COP(=O)(O)CP(=O)(O)O)[C@@H](O)[C@H]2O)c1NC1CCCC1 [Compound 244]	< 10 nM	< 10 nM	
C[C@@H](Nc1c(C#N)c(Cl)nc2c1cnn2[C@@H]1O[C@H](COP(=O)(O)CP(=O)(O)O)[C@@H](O)[C@H]1O)c1ccccc1F [Compound 248]	< 10 nM	< 10 nM	
C[C@@H](Nc1c(C#N)c(Cl)nc2c1cnn2[C@@H]1O[C@H](COP(=O)(O)CP(=O)(O)O)[C@@H](O)[C@H]1O)c1ccc(C#N)cc1 [Compound 249]	< 10 nM	< 10 nM	
N#Cc1c(Cl)nc2c(cnn2[C@@H]2O[C@H](COP(=O)(O)CP(=O)(O)O)[C@@H](O)[C@H]2O)c1N[C@H]1C[C@@H](F)C1 [Compound 321]	< 10 nM	< 10 nM	
N#Cc1c(Cl)nc2c(cnn2[C@@H]2O[C@H](COP(=O)(O)CP(=O)(O)O)[C@@H](O)[C@H]2O)c1NC1CC(F)(F)C1 [Compound 322]	< 10 nM	< 10 nM	
O=P(O)(O)CS(=O)(=O)C[C@H]1O[C@@H](n2ccc3c(NC4CCCC4)cc(Cl)nc32)[C@H](O)[C@@H]1O [Compound 323]	< 10 nM	< 10 nM	1.4 nM

Results, then the compound that gave them:

IC50 (Human CD73)	IC50 [1, 2]	IC50 ([1]; read-out: IC50)	Structure (SMILES)
< 10 nM	< 10 nM		C[C@H](Nc1c(C#N)c(Cl)nc2c1ncn2[C@@H]1O[C@H](COP(=O)(O)CP(=O)(O)O)[C@@H](O)[C@H]1O)c1ccc(F)cn1 [Compound 240]
< 10 nM	< 10 nM		C[C@H](Nc1c(C#N)c(Cl)nc2c1ccn2[C@@H]1O[C@H](COP(=O)(O)CP(=O)(O)O)[C@@H](O)[C@@H]1F)c1ccc(F)cc1 [Compound 241]
< 10 nM	< 10 nM		C[C@H](Nc1c(C#N)c(Cl)nc2c1ncn2[C@@H]1O[C@H](COP(=O)(O)CP(=O)(O)O)[C@@H](O)[C@@H]1F)c1ccc(F)cc1 [Compound 245]
< 10 nM	< 10 nM		C[C@H](Nc1c(C#N)c(Cl)nc2c1cnn2[C@@H]1O[C@H](COP(=O)(O)CP(=O)(O)O)[C@@H](O)[C@H]1O)c1ccc(F)cc1 [Compound 247]
< 10 nM	< 10 nM		C[C@@H](Nc1c(C#N)c(Cl)nc2c1ncn2[C@@H]1O[C@H](COP(=O)(O)CP(=O)(O)O)[C@@H](O)[C@@H]1F)c1ccc(F)cc1 [Compound 250]
